The target of experiment [1] is T1, MKK7 (Homo sapiens (Human), UniProt O14733). The experiment can be described thus: MKK7 ADP-Glo in vitro pharmacology assay. The class given is biochemical. The settings on record: calculated from remaining activity (%). The procedure:
A study was conducted to determine the pharmacology of Compounds 1-18 in vitro in a plurality of biological matrices. Compounds 1-18 were prepared into proper concentrations of DMSO solution. The compound stock was then serially diluted into 10 concentrations by 3-fold dilution in 384 pp-plate. 5 nL of compound stock was transferred to a 384 plate. The compound stock was then diluted to 0.74 nM using a solution, which contained 0.79 mL of water, 0.2 mL of 5× Buffer, 2 μL of DTT, 6.66 μL of 7.5% BSA, and 5 μL of 10 mM ATP, to form an MKK7 mixture. The MKK7 mixture was then pre-warmed and 2.5 μL was added to each well designated for the “Test compound” and “High control” well, 2.5 μL solution 1 to each well designated for the “Low control” well. The well was incubated for 30 min and centrifuged at room temperature. Following centrifugation, 5 μL of ADD-Glo Reagent was added to each well and incubated for 60 min after centrifugation at room temperature. 10 μL of ADP-Glo Detection was then added to each well and incubated for 30 min after centrifugation in dark at room temperature. IC50 values were calculated based on the remaining activity (%) using read conversion ratio (CR).

Experiment [2] concerns the target T1, MKK7. In words: In vitro competitive binding assay (kinase-tagged phage / qPCR). The note with it: 11-point 3-fold dilution series; Hill slope set to -1. The procedure:
Kinase-tagged T7 phage strains were prepared in an E. coli host derived from the BL21 strain. E. coli were grown to log-phase and infected with T7 phage and incubated with shaking at 32° C. until lysis. The lysates were centrifuged and filtered to remove cell debris. The remaining kinases were produced in HEK-293 cells and subsequently tagged with DNA for qPCR detection. Streptavidin-coated magnetic beads were treated with biotinylated small molecule ligands for 30 minutes at room temperature to generate affinity resins for kinase assays. The liganded beads were blocked with excess biotin and washed with blocking buffer (SeaBlock (Pierce), 1% BSA, 0.05% Tween 20, 1 mM DTT) to remove unbound ligand and to reduce non-specific binding. […] Kds were determined using an 11-point 3-fold compound dilution series with three DMSO control points. […] The kinase concentration in the eluates was measured by qPCR.
An 11-point 3-fold serial dilution of each test compound was prepared in 100% DMSO at 100× final test concentration and subsequently diluted to 1× in the assay (final DMSO concentration=1%). Most Kds were determined using a compound top concentration=30,000 nM. […]
Binding constants (Kds) were calculated with a standard dose-response curve using the Hill equation: […]

In general, IC50 refers to the concentration that gives 50% inhibition. The Kd is the constant that tells how readily two partners part at equilibrium. Low readings indicate higher affinity, high ones lower affinity.

Structures are written as SMILES.

T1 sequence (O14733 whole entry): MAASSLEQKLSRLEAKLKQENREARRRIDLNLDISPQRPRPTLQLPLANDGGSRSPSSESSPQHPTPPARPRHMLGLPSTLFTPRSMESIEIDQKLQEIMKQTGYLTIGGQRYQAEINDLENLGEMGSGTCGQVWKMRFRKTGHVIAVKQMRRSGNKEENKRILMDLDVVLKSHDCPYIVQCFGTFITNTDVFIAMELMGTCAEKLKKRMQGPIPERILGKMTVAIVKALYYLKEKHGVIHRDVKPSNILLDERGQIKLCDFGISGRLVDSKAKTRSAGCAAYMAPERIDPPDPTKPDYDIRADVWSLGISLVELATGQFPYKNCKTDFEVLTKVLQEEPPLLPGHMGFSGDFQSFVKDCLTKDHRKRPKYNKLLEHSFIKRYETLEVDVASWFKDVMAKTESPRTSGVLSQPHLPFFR

On to `C=CC(=O)N1CCOc2ccc(-c3n[nH]c4ccccc34)cc21` [Compound 13, 1-[6-(1H-indazol-3-yl)-2,3-dihydro-1,4-benzoxazin-4-yl]prop-2-en-1-one], for which the IC50 at MKK7 [1] was 0.14 µM.
Take `C=CC(=O)N1CCc2ccc(-c3n[nH]c4cc(C)ccc34)cc21` [Compound 4, 1-[6-(6-methyl-1H-indazol-3-yl)-2,3-dihydroindol-1-yl]prop-2-en-1-one]: on MKK7 [1], the IC50 is 0.023 µM. The Kd at MKK7 [2] was determined as 0.0078 µM.
On to `C=CC(=O)N1CCc2c(-c3n[nH]c4ccccc34)cccc21` [Compound 2, 1-[4-(1H-indazol-3-yl)-2,3-dihydroindol-1-yl]prop-2-en-1-one], for which, at MKK7 [1], the IC50 was 0.092 µM.
Still for that read-out and setting: next, `C/C=C/C(=O)N1CCc2ccc(-c3n[nH]c4ccccc34)cc21` [Compound 9, (2E)-1-[6-(1H-indazol-3-yl)-2,3-dihydroindol-1-yl]but-2-en-1-one]: 1.1 µM; `N#C/C=C/C(=O)N1CCc2ccc(-c3n[nH]c4ccccc34)cc21` [Compound 5, (2E)-4-[6-(1H-indazol-3-yl)-2,3-dihydroindol-1-yl]-4-oxobut-2-enenitrile]: 0.07 µM; `C=CC(=O)N1CCCc2ccc(-c3n[nH]c4ccncc34)cc21` [Compound 11, 1-(7-{1H-pyrazolo[4,3-c]pyridin-3-yl}-3,4-dihydro-2H-quinolin-1-yl)prop-2-en-1-one]: 1.4 µM.
The same measure, in the same setting: next, `C=CC(=O)N1CCc2ccc(-c3n[nH]c4ccccc34)cc21` [Compound 14, 1-[6-(1H-indazol-3-yl)-2,3-dihydroindol-1-yl]prop-2-en-1-one]: 0.019 µM; `CCOC(=O)/C=C/C(=O)N1CCc2ccc(-c3n[nH]c4ccccc34)cc21` [Compound 7, ethyl (2E)-4-[6-(1H-indazol-3-yl)-2,3-dihydroindol-1-yl]-4-oxobut-2-enoate]: 3.9 µM.
Same read-out and setting: next, `C=CC(=O)N1CCCc2ccc(-c3n[nH]c4cnccc34)cc21` [Compound 10, 1-(7-{1H-pyrazolo[3,4-c]pyridin-3-yl}-3,4-dihydro-2H-quinolin-1-yl)prop-2-en-1-one]: 0.55 µM; `C=CC(=O)N1c2cc(-c3n[nH]c4ncccc34)ccc2C[C@@H]1C` [Compound 15-B]: 0.16 µM; `C=CC(=O)N1CCc2ccc(-c3n[nH]c4ncccc34)c(F)c21` [Compound 17, 1-(7-fluoro-6-{1H-pyrazolo[3,4-b]pyridin-3-yl}-2,3-dihydroindol-1-yl)prop-2-en-1-one]: 0.088 µM.
Turning to `C=CC(=O)N1CCCc2ccc(-c3n[nH]c4cc(C)ccc34)cc21` [Compound 12, 1-[7-(6-methyl-1H-indazol-3-yl)-3,4-dihydro-2H-quinolin-1-yl]prop-2-en-1-one], the IC50 at MKK7 [1] is 0.16 µM. The compound further displayed a dissociation constant (Kd) on MKK7 [2] of 0.071 µM.
In the case of `CN(C)C/C=C/C(=O)N1CCc2ccc(-c3n[nH]c4ccccc34)cc21` [Compound 6, (2E)-4-(dimethylamino)-1-[6-(1H-indazol-3-yl)-2,3-dihydroindol-1-yl]but-2-en-1-one], the half-maximal inhibitory concentration (IC50) at MKK7 [1] is 0.18 µM.
Still for that read-out and setting: the same measure for `C=CC(=O)N1CCc2ccc(-c3n[nH]c4cc(C#N)ccc34)cc21` [Compound 18, 3-[1-(prop-2-enoyl)-2,3-dihydroindol-6-yl]-1H-indazole-6-carbonitrile]: 0.006 µM; for `C=CC(=O)N1CCc2ccc(-c3n[nH]c4cnccc34)cc21` [Compound 1, 1-(6-{1H-pyrazolo[3,4-c]pyridin-3-yl}-2,3-dihydroindol-1-yl)prop-2-en-1-one]: 0.0048 µM; for `C=CC(=O)N1c2cc(-c3n[nH]c4ncccc34)ccc2CC1C` (stereo not drawn) [Compound 15, 1-[2-methyl-6-{1H-pyrazolo [3,4-b]pyridin-3-yl}-2,3-dihydroindol-1-yl]prop-2-en-1-one]: 0.44 µM.
On to `C=CS(=O)(=O)N1CCc2ccc(-c3n[nH]c4ncccc34)cc21` [Compound 16, 1-(ethenesulfonyl)-6-{1H-pyrazolo[3,4-b]pyridin-3-yl}-2,3-dihydroindole], for which, on MKK7 [1], the IC50 was 0.0077 µM.
On the same count and under the same terms, the same measure for `C=C(F)C(=O)N1CCc2ccc(-c3n[nH]c4ccccc34)cc21` [Compound 8, 2-fluoro-1-[6-(1H-indazol-3-yl)-2,3-dihydroindol-1-yl]prop-2-en-1-one]: 0.84 µM; for `C=CC(=O)N1CCc2ccc(-c3n[nH]c4ccncc34)cc21` [Compound 3, 1-(6-{1H-pyrazolo[4,3-c]pyridin-3-yl}-2,3-dihydroindol-1-yl)prop-2-en-1-one]: 0.03 µM.
